Measurements from ChEMBL document CHEMBL1697731, “Cheminformatics analysis of assertions mined from literature that describe drug-induced liver injury in different species” (Chem Res Toxicol, 2010).
Where a SMILES comes first, the peptide text is derived from it. Bridges are numbered along the chain shown (N, C = ends). [ ]: non-standard residue; d: D form. The star is where a group is joined. Ileψ(thiazoline)Cys = CC[C@H](C)[C@H](N)C1=N[C@H](C(=O)*)CS1; dOrn = NCCC[C@@H](N)C(=O)O

Legend:
Hepatotoxicity [1] = assay: Literature-mined compound from Fourches et al multi-species drug-induced liver injury (DILI) dataset, effect in rodents; details: rodentia
Hepatotoxicity [2] = assay: Literature-mined compound from Fourches et al multi-species drug-induced liver injury (DILI) dataset, effect in humans; details: human
Hepatotoxicity [3] = assay: Literature-mined compound from Fourches et al multi-species drug-induced liver injury (DILI) dataset, effect in non-rodents

| Structure (SMILES) | Hepatotoxicity (Hepatotoxicity [1]) | Hepatotoxicity (Hepatotoxicity [2]) | Hepatotoxicity (Hepatotoxicity [3]) | Hepatotoxicity (Hepatotoxicity [1]; Liver) | Hepatotoxicity (Hepatotoxicity [2]; Liver) | Hepatotoxicity (Hepatotoxicity [3]; Liver) |
| --- | --- | --- | --- | --- | --- | --- |
| COc1ccc(-c2cc(=S)ss2)cc1 [ANETHOLTRITHION] | drug-induced liver injury reported | no drug-induced liver injury reported | no drug-induced liver injury reported | – | – | – |
| O=C1c2c(O)cccc2Cc2cccc(O)c21 [ANTHRALIN] | drug-induced liver injury reported | drug-induced liver injury reported | no drug-induced liver injury reported | – | – | – |
| CN1CCc2cccc3c2[C@H]1Cc1ccc(O)c(O)c1-3 [APOMORPHINE] | drug-induced liver injury reported | no drug-induced liver injury reported | no drug-induced liver injury reported | – | – | – |
| C=CCC1(C(C)C)C(=O)NC(=O)NC1=O [APROBARBITAL] | drug-induced liver injury reported | no drug-induced liver injury reported | no drug-induced liver injury reported | – | – | – |
| N=C(N)NCCC[C@H](N)C(=O)O [ARGININE] | drug-induced liver injury reported | drug-induced liver injury reported | drug-induced liver injury reported | – | – | – |
| O=C1O[C@H]([C@@H](O)CO)C(O)=C1O [ASCORBIC ACID] | drug-induced liver injury reported | drug-induced liver injury reported | drug-induced liver injury reported | – | – | – |
| CC(=O)Oc1ccccc1C(=O)O.NCCCCC(N)C(=O)O [ASPIRIN DL-LYSINE] | drug-induced liver injury reported | drug-induced liver injury reported | no drug-induced liver injury reported | – | – | – |
| CC(=O)Oc1ccccc1C(=O)O [ASPIRIN] | drug-induced liver injury reported | drug-induced liver injury reported | drug-induced liver injury reported | – | – | – |
| CC1=C(/C=C/C(C)=C/C=C/C(C)=C/C=C/C=C(C)/C=C/C=C(C)/C=C/C2=C(C)C(=O)[C@@H](O)CC2(C)C)C(C)(C)C[C@H](O)C1=O [ASTAXANTHIN] | drug-induced liver injury reported | no drug-induced liver injury reported | no drug-induced liver injury reported | – | – | – |
| COC(=O)N[C@H](C(=O)N[C@@H](Cc1ccccc1)[C@@H](O)CN(Cc1ccc(-c2ccccn2)cc1)NC(=O)[C@@H](NC(=O)OC)C(C)(C)C)C(C)(C)C [ATAZANAVIR] | no drug-induced liver injury reported | drug-induced liver injury reported | no drug-induced liver injury reported | – | – | – |
| CC(C)NCC(O)COc1ccc(CC(N)=O)cc1 (stereo not given) [ATENOLOL] | – | – | – | no drug-induced liver injury reported | drug-induced liver injury reported | no drug-induced liver injury reported |
| CCCC1(CCC)CCC2(CCN(CCCN(CC)CC)C2)CC1 [ATIPRIMOD] | no drug-induced liver injury reported | drug-induced liver injury reported | no drug-induced liver injury reported | – | – | – |
| CNCC[C@@H](Oc1ccccc1C)c1ccccc1.Cl [ATOMOXETINE HYDROCHLORIDE] | no drug-induced liver injury reported | drug-induced liver injury reported | no drug-induced liver injury reported | – | – | – |
| CC(C)c1c(C(=O)Nc2ccccc2)c(-c2ccccc2)c(-c2ccc(F)cc2)n1CC[C@@H](O)C[C@@H](O)CC(=O)O [ATORVASTATIN] | – | – | – | drug-induced liver injury reported | drug-induced liver injury reported | drug-induced liver injury reported |
| CC(C)c1cc(C(C)C)c(CC(=O)NS(=O)(=O)Oc2c(C(C)C)cccc2C(C)C)c(C(C)C)c1 [AVASIMIBE] | drug-induced liver injury reported | drug-induced liver injury reported | no drug-induced liver injury reported | – | – | – |
| Nc1ncn([C@@H]2O[C@H](CO)[C@@H](O)[C@H]2O)c(=O)n1 [AZACITIDINE] | – | – | – | drug-induced liver injury reported | drug-induced liver injury reported | no drug-induced liver injury reported |
| Cn1cnc([N+](=O)[O-])c1Sc1ncnc2nc[nH]c12 [AZATHIOPRINE] | – | – | – | drug-induced liver injury reported | drug-induced liver injury reported | no drug-induced liver injury reported |
| CC[C@H]1OC(=O)[C@H](C)[C@@H](O[C@H]2C[C@@](C)(OC)[C@@H](O)[C@H](C)O2)[C@H](C)[C@@H](O[C@@H]2O[C@H](C)C[C@H](N(C)C)[C@H]2O)[C@](C)(O)C[C@@H](C)CN(C)[C@H](C)[C@@H](O)[C@]1(C)O [AZITHROMYCIN] | no drug-induced liver injury reported | drug-induced liver injury reported | no drug-induced liver injury reported | – | – | – |

| Structure (SMILES) | Hepatotoxicity (Hepatotoxicity [1]) | Hepatotoxicity (Hepatotoxicity [2]) | Hepatotoxicity (Hepatotoxicity [3]) | Hepatotoxicity (Hepatotoxicity [1]; Liver) | Hepatotoxicity (Hepatotoxicity [2]; Liver) | Hepatotoxicity (Hepatotoxicity [3]; Liver) |
| --- | --- | --- | --- | --- | --- | --- |
| CC1(C)S[C@@H]2[C@H](NC(=O)[C@H](NC(=O)N3CCNC3=O)c3ccccc3)C(=O)N2[C@H]1C(=O)O [AZLOCILLIN] | no drug-induced liver injury reported | drug-induced liver injury reported | no drug-induced liver injury reported | – | – | – |
| C[C@H]1[C@H](NC(=O)/C(=N\OC(C)(C)C(=O)O)c2csc(N)n2)C(=O)N1S(=O)(=O)O [AZTREONAM] | no drug-induced liver injury reported | drug-induced liver injury reported | no drug-induced liver injury reported | – | – | – |
| CC[C@H](C)[C@H](N)C1=N[C@H](C(=O)N[C@@H](CC(C)C)C(=O)N[C@H](CCC(=O)O)C(=O)N[C@H](C(=O)N[C@H]2CCCCNC(=O)[C@H](CC(N)=O)NC(=O)[C@@H](CC(=O)O)NC(=O)[C@H](Cc3cnc[nH]3)NC(=O)[C@@H](Cc3ccccc3)NC(=O)[C@H]([C@@H](C)CC)NC(=O)[C@@H](CCCN)NC2=O)[C@@H](C)CC)CS1 [BACITRACIN] ({Ileψ(thiazoline)Cys}-L[dE]IK[dOrn]I[dF]H[dD]N; lactam 4-C) | drug-induced liver injury reported | no drug-induced liver injury reported | no drug-induced liver injury reported | – | – | – |
| NCC(CC(=O)O)c1ccc(Cl)cc1 (stereo not given) [BACLOFEN] | no drug-induced liver injury reported | drug-induced liver injury reported | no drug-induced liver injury reported | – | – | – |
| CCC1(CC)C(=O)NC(=O)NC1=O [BARBITAL] | drug-induced liver injury reported | no drug-induced liver injury reported | no drug-induced liver injury reported | – | – | – |
| Cn1c(CCCC(=O)O)nc2cc(N(CCCl)CCCl)ccc21 [BENDAMUSTINE] | no drug-induced liver injury reported | drug-induced liver injury reported | no drug-induced liver injury reported | – | – | – |
| O=C(O)COc1nn(Cc2ccccc2)c2ccccc12 [BENDAZAC] | – | – | – | no drug-induced liver injury reported | drug-induced liver injury reported | no drug-induced liver injury reported |
| CC(=O)Nc1ccc(OC(=O)c2ccccc2OC(C)=O)cc1 [BENORILATE] | drug-induced liver injury reported | no drug-induced liver injury reported | no drug-induced liver injury reported | – | – | – |
| CC(C(=O)O)c1ccc2oc(-c3ccc(Cl)cc3)nc2c1 (stereo not given) [BENOXAPROFEN] | drug-induced liver injury reported | drug-induced liver injury reported | no drug-induced liver injury reported | – | – | – |
| CCc1oc2ccccc2c1C(=O)c1ccc(O)cc1 [BENZARONE] | drug-induced liver injury reported | drug-induced liver injury reported | no drug-induced liver injury reported | – | – | – |
| CCc1oc2ccccc2c1C(=O)c1cc(Br)c(O)c(Br)c1 [BENZBROMARONE] | drug-induced liver injury reported | drug-induced liver injury reported | no drug-induced liver injury reported | – | – | – |
| CCc1oc2ccccc2c1C(=O)c1cc(I)c(O)c(I)c1 [BENZIODARONE] | drug-induced liver injury reported | no drug-induced liver injury reported | no drug-induced liver injury reported | – | – | – |
| O=C(OOC(=O)c1ccccc1)c1ccccc1 [BENZOYL PEROXIDE] | drug-induced liver injury reported | no drug-induced liver injury reported | no drug-induced liver injury reported | – | – | – |
| CC#CCC(C)[C@H](O)/C=C/[C@@H]1[C@H]2c3cccc(CCCC(=O)O)c3O[C@H]2C[C@H]1O (stereo not given in full) [BERAPROST] | drug-induced liver injury reported | no drug-induced liver injury reported | no drug-induced liver injury reported | – | – | – |
| CC1=C(/C=C/C(C)=C/C=C/C(C)=C/C=C/C=C(C)/C=C/C=C(C)/C=C/C2=C(C)CCCC2(C)C)C(C)(C)CCC1 [BETA CAROTENE] | drug-induced liver injury reported | drug-induced liver injury reported | drug-induced liver injury reported | – | – | – |
| CC[C@H](CC[C@@H](C)[C@H]1CC[C@H]2[C@@H]3CC=C4C[C@@H](O)CC[C@]4(C)[C@H]3CC[C@]12C)C(C)C [BETA-SITOSTEROL] | drug-induced liver injury reported | drug-induced liver injury reported | no drug-induced liver injury reported | – | – | – |
| C[N+](C)(C)CC(=O)O [BETAINE] | drug-induced liver injury reported | no drug-induced liver injury reported | no drug-induced liver injury reported | – | – | – |
